# Assay results: patent publication US10010539B2, “Pyrazole, triazole and tetrazole orexin receptor antagonists” (MERCK SHARP & DOHME CORP., priority 2014, dated 2018)
# pIC50: −log10 of the molar value.
# Legend:
# human orexin-2 receptor = human orexin-2 receptor (Homo sapiens (Human), UniProt O43614); test: FLIPR Ca2+ Flux Assay, orexin-2 receptor (hOX2R FLIPR); type: cell-based; details: CHO cells expressing the human orexin-2 receptor; agonist 70 pM Ala-6,12 human orexin-A
# Procedure: (§1) The utility of the compounds in accordance with the present invention as orexin receptor OX1R and/or OX2R antagonists may be readily determined without undue experimentation by methodology well known in the art, including the “FLIPR Ca^2+ Flux Assay” (Okumura et al., Biochem. Biophys. Res. Comm. 280:976-981, 2001). In a typical experiment the OX1 and OX2 receptor antagonistic activity of the compounds of the present invention was determined in accordance with the following experimental method. For intracellular calcium measurements, Chinese hamster ovary (CHO) cells expressing the rat orexin-1 receptor or the human orexin-2 receptor, are grown in Iscove's modified DMEM containing 2 mM L-glutamine, […], 1% hypoxanthine-thymidine supplement, 100 U/ml penicillin, 100 μg/ml streptomycin and 10% heat-inactivated fetal calf serum (FCS). The cells are seeded at 20,000 cells/well into Becton-Dickinson black 384-well clear bottom sterile plates coated with poly-D-lysine. All reagents were from GIBCO-Invitrogen Corp. The seeded plates are incubated overnight at 37° C. and 5% CO2. Ala-6,12 human orexin-A as the agonist is prepared as a 1 mM stock solution in 1% bovine serum albumin (BSA) and diluted in assay buffer (HBSS containing 20 mM HEPES, 0.1% BSA and 2.5 mM probenecid, pH7.4) for use in the assay at a final concentration of 70 pM. Test compounds are prepared as 10 mM stock solution in DMSO, then diluted in 384-well plates, first in DMSO, then assay buffer. On the day of the assay, cells are washed 3 times with 100 μl assay buffer and then incubated for 60 min (37° C., 5% CO2) in 60 μl assay buffer containing 1 μM Fluo-4AM ester, 0.02% pluronic acid, and 1% BSA. The dye loading solution is then aspirated and cells are washed 3 times with 100 μl assay buffer. 30 μl of that same buffer is left in each well. Within the Fluorescent Imaging Plate Reader (FLIPR, Molecular Devices), test compounds are added to the plate in a volume of 25 μl, incubated for 5 min and finally 25 μl of agonist is added. Fluorescence is measured for each well at 1 second intervals for 5 minutes and the height of each fluorescence peak is compared to the height of the fluorescence peak induced by 70 pM Ala-6,12 orexin-A with buffer in place of antagonist. For each antagonist, IC50 value (the concentration of compound needed to inhibit 50% of the agonist response) is determined. Alternatively, compound potency can be assessed by a radioligand binding assay (described in Bergman et. al. Bioorg. Med. Chem. Lett. 2008, 18, 1425-1430) in which the inhibition constant (Ki) is determined in membranes prepared from CHO cells expressing either the OX1 or OX2 receptor. The intrinsic orexin receptor antagonist activity of a compound which may be used in the present invention may be determined by these assays.
# [1] = target: hOXIR (orexin-1 receptor) (Homo sapiens, UniProt O43613); test: FLIPR Ca2+ Flux Assay, orexin-1 receptor (hOXIR FLIPR); type: cell-based; details: CHO cells expressing the orexin-1 receptor (method text: rat; table head: hOXIR); agonist 70 pM Ala-6,12 human orexin-A
# Procedure: as §1
# human orexin-2 receptor, sequence (O43614 whole entry): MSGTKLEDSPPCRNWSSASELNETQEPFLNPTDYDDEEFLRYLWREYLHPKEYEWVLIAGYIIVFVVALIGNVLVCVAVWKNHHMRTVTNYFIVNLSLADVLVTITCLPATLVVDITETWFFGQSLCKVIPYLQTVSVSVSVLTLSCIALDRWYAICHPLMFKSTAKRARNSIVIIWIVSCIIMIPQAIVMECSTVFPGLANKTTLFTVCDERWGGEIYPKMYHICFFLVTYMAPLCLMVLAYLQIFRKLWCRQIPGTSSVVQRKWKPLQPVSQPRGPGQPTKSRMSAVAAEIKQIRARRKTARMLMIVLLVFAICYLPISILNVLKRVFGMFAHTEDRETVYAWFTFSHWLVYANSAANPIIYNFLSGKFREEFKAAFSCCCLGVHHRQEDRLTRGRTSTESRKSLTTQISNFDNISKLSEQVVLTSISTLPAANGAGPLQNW
Structure (SMILES),pIC50 (human orexin-2 receptor),pIC50 [1]
"C[C@@H]1CC[C@@H](n2cc([C@](C)(O)C(F)(F)F)cn2)CN1C(=O)c1ccccc1-n1nccn1 [Example 106, (2S)-1,1,1-Trifluoro-2-{1-[(3R,6R)-6-methyl-1-{[2-(2H-1,2,3-triazol-2-yl)phenyl]carbonyl}piperidin-3-yl]-1H-pyrazol-4-yl}propan-2-ol]",7.97,5.69
"Cc1noc(-c2ccccc2C(=O)N2C[C@H](n3ncc(C(C)(C)O)n3)CC[C@H]2C)n1 [Example 36, 2-{2-[(3R,6R)-6-methyl-1-{[2-(3-methyl-1,2,4-oxadiazol-5-yl)phenyl]carbonyl}piperidin-3-yl]-2H-1,2,3-triazol-4-yl}propan-2-ol]",7.20,< 5.00
"CCOc1ccccc1C(=O)N1C[C@H](n2cc(C(C)(C)O)cn2)CC[C@H]1C [Example 77, 2-(1-{(3R,6R)-1-[(2-Ethoxyphenyl)carbonyl]-6-methylpiperidin-3-yl}-1H-pyrazol-4-yl)propan-2-ol]",6.92,< 5.00
"CC(C)c1ccccc1C(=O)N1C[C@H](n2cc(C(C)(C)O)cn2)CC[C@H]1C [Example 82, 2-{1-[(3R,6R)-6-Methyl-1-{[2-(1-methylethyl)phenyl]carbonyl}piperidin-3-yl]-1H-pyrazol-4-yl}propan-2-ol]",6.46,< 5.00
"Cc1noc(-c2ccc(F)cc2C(=O)N2C[C@H](n3ncc(C(C)(C)O)n3)CC[C@H]2C)n1 [Example 35, 2-{2-[(3R,6R)-1-{[5-fluoro-2-(3-methyl-1,2,4-oxadiazol-5-yl)phenyl]carbonyl}-6-methylpiperidin-3-yl]-2H-1,2,3-triazol-4-yl}propan-2-ol]",6.23,< 5.00
"Cc1nn([C@@H]2CC[C@@H](C)N(C(=O)c3cccnc3-c3ccccc3)C2)nc1C(C)(C)O [Example 73, 2-(5-Methyl-2-{(3R,6R)-6-methyl-1-[(2-phenylpyridin-3-yl)carbonyl]piperidin-3-yl}-2H-1,2,3-triazol-4-yl)propan-2-ol]",7.76,5.61
"C[C@@H]1CC[C@@H](n2ncc(C(C)(C)O)n2)CN1C(=O)c1ccccc1C1CC1 [Example 6, (2-Cyclopropylphenyl)((2R,5R)-5-(4-(2-hydroxypropan-2-yl)-2H-1,2,3-triazol-2-yl)-2-methylpiperidin-1-yl)methanone]",7.83,5.61
"CC(C)Oc1ccccc1C(=O)N1C[C@H](n2cc(C(C)(C)O)cn2)CC[C@H]1C [Example 81, 2-{1-[(3R,6R)-6-Methyl-1-{[2-(1-methylethoxy)phenyl]carbonyl}piperidin-3-yl]-1H-pyrazol-4-yl}propan-2-ol]",7.05,< 5.00
"CC(C)c1ccccc1C(=O)N1C[C@H](n2ncc(C(C)(C)O)n2)CC[C@H]1C [Example 5, ((2R,5R)-5-(4-(2-Hydroxypropan-2-yl)-2H-1,2,3-triazol-2-yl)-2-methylpiperidin-1-yl)(2-isopropylphenyl)methanone]",7.15,< 5.00
"C[C@@H]1CC[C@@H](n2ncc(C(C)(C)O)n2)CN1C(=O)c1ccccc1OC(F)(F)F [Example 19, ((2R,5R)-5-(4-(2-Hydroxypropan-2-yl)-2H-1,2,3-triazol-2-yl)-2-methylpiperidin-1-yl)(2-(trifluoromethoxy)phenyl)methanone]",7.92,5.55
"C[C@@H]1CC[C@@H](n2cc([C@@H](O)C(F)(F)F)cn2)CN1C(=O)c1ccccc1-n1nccn1 [Example 102, (1R)-2,2,2-Trifluoro-1-{1-[(3R,6R)-6-methyl-1-{[2-(2H-1,2,3-triazol-2-yl)phenyl]carbonyl}piperidin-3-yl]-1H-pyrazol-4-yl}ethanol]",6.91,< 5.00
"Cc1ccc(C(=O)N2C[C@H](n3ncc(C(C)(C)O)n3)CC[C@H]2C)c(-n2nccn2)n1 [Example 55, 2-{2-[(3R,6R)-6-methyl-1-{[6-methyl-2-(2H-1,2,3-triazol-2-yl)pyridin-3-yl]carbonyl}piperidin-3-yl]-2H-1,2,3-triazol-4-yl}propan-2-ol]",6.65,< 5.00
"C[C@@H]1CC[C@@H](n2cc(C(C)(C)O)cn2)CN1C(=O)c1ccccc1-n1nccn1 [Example 75, 2-{1-[(3R,6R)-6-Methyl-1-{[2-(2H-1,2,3-triazol-2-yl)phenyl]carbonyl}piperidin-3-yl]-1H-pyrazol-4-yl}propan-2-ol]",7.67,< 5.00
"Cc1noc(-c2c(F)cccc2C(=O)N2C[C@H](n3ncc(C(C)(C)O)n3)CC[C@H]2C)n1 [Example 48, 2-{2-[(3R,6R)-1-{[3-fluoro-2-(3-methyl-1,2,4-oxadiazol-5-yl)phenyl]carbonyl}-6-methylpiperidin-3-yl]-2H-1,2,3-triazol-4-yl}propan-2-ol]",6.86,< 5.00
Cc1cccc(C(=O)N2C[C@H](n3ncc(C(C)(C)O)n3)CC[C@H]2C)c1-n1nccn1 [Example 46],7.25,< 5.00
"Cc1nn([C@@H]2CC[C@@H](C)N(C(=O)c3cccnc3OC(C)C)C2)nc1C(C)(C)O [Example 63, 2-{5-Methyl-2-[(3R,6R)-6-methyl-1-{[2-(1-methylethoxy)pyridin-3-yl]carbonyl}piperidin-3-yl]-2H-1,2,3-triazol-4-yl}propan-2-ol]",7.80,5.47
"C[C@@H]1CC[C@@H](n2cc(C(C)(C)O)cn2)CN1C(=O)c1nccnc1-n1cccn1 [Example 95, 2-{1-[(3R,6R)-6-Methyl-1-{[3-(1H-pyrazol-1-yl)pyrazin-2-yl]carbonyl}piperidin-3-yl]-1H-pyrazol-4-yl}propan-2-ol]",6.57,< 5.00
"C[C@@H]1CC[C@@H](n2ncc(C(C)(C)O)n2)CN1C(=O)c1cccnc1OCC(F)F [Example 13, (2-(2,2-Difluoroethoxy)pyridin-3-yl)((2R,5R)-5-(4-(2-hydroxypropan-2-yl)-2H-1,2,3-triazol-2-yl)-2-methylpiperidin-1-yl)methanone]",7.84,< 5.00
"C[C@@H]1CC[C@@H](n2ncc(C(C)(C)O)n2)CN1C(=O)c1cccc(F)c1-n1nccn1 [Example 31, 2-{2-[(3R,6R)-1-{[3-fluoro-2-(2H-1,2,3-triazol-2-yl)phenyl]carbonyl}-6-methylpiperidin-3-yl]-2H-1,2,3-triazol-4-yl}propan-2-ol]",7.44,< 5.00
"CCCc1ncccc1C(=O)N1C[C@H](n2ncc(C(C)(C)O)n2)CC[C@H]1C [Example 3, ((2R,5R)-5-(4-(2-Hydroxypropan-2-yl)-2H-1,2,3-triazol-2-yl)-2-methylpiperidin-1-yl)(2-propylpyridin-3-yl)methanone]",5.97,< 5.00
"Cc1nc(-c2ccc(F)cc2C(=O)N2C[C@H](n3ncc(C(C)(C)O)n3)CC[C@H]2C)no1 [Example 30, (5-Fluoro-2-(5-methyl-1,2,4-oxadiazol-3-yl)phenyl)((2R,5R)-5-(4-(2-hydroxypropan-2-yl)-2H-1,2,3-triazol-2-yl)-2-methylpiperidin-1-yl)methanone]",6.86,< 5.00
"Cc1nc(-c2c(F)cccc2C(=O)N2C[C@H](n3ncc(C(C)(C)O)n3)CC[C@H]2C)no1 [Example 37, 2-{2-[(3R,6R)-1-{[3-fluoro-2-(5-methyl-1,2,4-oxadiazol-3-yl)phenyl]carbonyl}-6-methylpiperidin-3-yl]-2H-1,2,3-triazol-4-yl}propan-2-ol]",7.12,< 5.00
"C[C@@H]1CC[C@@H](n2cc(C(C)(C)O)cn2)CN1C(=O)c1ccccc1SC(F)(F)F [Example 88, 2-{1-[(3R,6R)-6-Methyl-1-({2-[(trifluoromethyl)sulfanyl]phenyl}carbonyl)piperidin-3-yl]-1H-pyrazol-4-yl}propan-2-ol]",7.82,5.10
"C[C@@H]1CC[C@@H](n2cc(C(C)(C)O)cn2)CN1C(=O)c1cccnc1OCC(F)(F)F [Example 94, 2-{1-[(3R,6R)-6-Methyl-1-{[2-(2,2,2-trifluoroethoxy)pyridin-3-yl]carbonyl}piperidin-3-yl]-1H-pyrazol-4-yl}propan-2-ol]",7.43,< 5.00
